According to patent publication US11439618B2, “Compositions and methods for lowering triglycerides” (Amarin Pharmaceuticals Ireland Limited, priority 2009, dated 2022):

System: subjects with Age-Associated Memory Impairment
Experiment: Safety and tolerability (adverse events), 6-week AAMI study
Assay type: in vivo, human
Description: All randomized subjects that received at least 1 dose of study medication were included in the Safety Population.
Safety evaluations were based on the safety population. Safety and tolerability were assessed in terms of AEs, vital signs, 12-lead ECG, clinical laboratory data, medical history, and study drug compliance. Safety and tolerability data were presented by treatment group.

CC/C=C\C/C=C\C/C=C\C/C=C\C/C=C\CCCC(=O)OCC [Ethyl-EPA, all-cis eicosa-5,8,11,14,17-pentaenoic acid ethyl ester]
Nausea Probably Related to the study drug (1 g): One | Nausea Possibly Related to the study drug (1 g cohort): two | Nausea Possibly Related to the study drug (2 g cohort): one | SAE reported (2 g treatment group): One | Subjects discontinued due to TEAEs (2 g treatment group): 2 subjects | Serious adverse event (worsening epigastric chest pain), relation to study drug (2 g, one subject, 17 days after start, 9 days after last dose): unrelated to the study drug | Nausea Possibly Related to the study drug (4 g cohort): two | Diarrhea, relation to the study drug (4 g, one subject): diarrhea that was Probably Related to the study drug | Treatment emergent AEs (TEAEs) reported (ethyl-EPA treatment groups (1, 2, 4 g), placebo groups 34 events): 105 events | Deaths during the study (whole study): no deaths | Severity and relatedness of most TEAEs (whole study): mild in severity and unrelated to study drug | TEAEs Definitely Related to the study drug (whole study): No TEAEs were Definitely Related
